Consider five molecules from EP0060994A1, “Bis-hydroxyethylmercapto-1,10-decane derivative, process for its preparation, and pharmaceutical compositions containing it” (LABORATORI PROPHIN S.p.A., priority 1981, dated 1982).

Where two headings read alike, the source gives them in different places.

Series [1] concerns aus dem Epydimalgewebe der Ratten isolierten und in vitro inkubierten Fettzellen. As to the kind of experiment: tissue or blood. The conditions noted are these: 0.5 h. The source says: Die in der untenanliegenden Tabelle hervorgebrachten Resultate wurden auf, aus dem Epydimalgewebe der Ratten isolierten und in vitro inkubierten Fettzellen durchgeführt, wobei die Befreiung von Glyzerol als Parameter der Lypolysis in Anbetracht gezogen wurde.
Die spontane Lypolysis in Abwesenheit von Arzneimitteln wurde als Vergleichstermin in Anbetracht gezogen.
Die Hemmungsprozentualen beziehen sich auf die spontane (erste Spalte), von Epynephrin induzierte (zweite Spalte) und von Theophyllin induzierte (dritte Spalte) Lypolysis.

Series [2] concerns Lypolysis. The conditions noted are these: in the presence of zyklischem AMP-dibutyrat; cited from earlier work.
Series [3] has as its system Maus (Swissstamm). The conditions noted are these: mouse, oral, same experimental conditions; literature value; cited from earlier work.
Where [4] appears, read: read-out: Lypolysis +Epynephrin 10^-6M.
[5] abbreviates: read-out: Lypolysis +Theophyllin 3x10^-4M.

For the molecule `CNCC(O)c1ccc(O)c(O)c1` (stereo not drawn) [Epynephrin], the fold induction at 1 µM in series [1] (read-out: von Epynephrin in Vergleich mit der spontanen Lypolysis induzierte Zunahme) is 12.8.

On to `OCc1cccnc1` [N, Nicotinol], for which the values for the inhibition at 2000 µM in series [1] (setting [4]), in series [1] (setting [5]) and in series [1] (read-out: Lypolysis Spontane) were 38%, 60% and 89%, respectively. Also, the inhibition at 200 µM came out at 37% in series [1] (setting [5]) and 60% in series [1] (read-out: Lypolysis Spontane).

As for `OCCSCCCCCCCCCCSCCO` [T, Thiadenol], in series [2], the “in vitro lypolysishemmende Wirkung” value is given as “lypolysishemmende Wirkung”. For the same molecule, in series [3], the LD50-Wert was 10 g/kg. In addition, the inhibition at 1000 µM in series [1] (setting [4]) is 33%. For the same molecule, in series [1] (setting [5]), the inhibition at 100 µM stood at 34% and the inhibition at 1000 µM is 47%.

Turning to `O=C(OCCSCCCCCCCCCCSCCOC(=O)OCc1cccnc1)OCc1cccnc1` [TN, Gemischtes Doppelcarbonat des Bis-hydroxyethylmercapto-1,10-decans und 3-Pyridylmethanols], the inhibition at 100 µM stood at 34% in series [1] (setting [4]), 30% in series [1] (setting [5]) and 70% in series [1] (read-out: Lypolysis Spontane). Also, the inhibition at 1000 µM in series [1] (setting [4]) was 58%; in series [1] (setting [5]) it was 69%; in series [1] (read-out: Lypolysis Spontane) it was 84%.

Turning to `Cn1c(=O)c2[nH]cnc2n(C)c1=O` [Theophyllin], the fold induction at 300 µM in series [1] (read-out: von Theophyllin in Vergleich mit der spontanen Lypolysis induzierte Zunahme) amounted to 7.6.
